These results are taken from paper PMC5937145, “Synergism of Antimicrobial Frog Peptides Couples to Membrane Intrinsic Curvature Strain” (Biophysical Journal, 2018).

Marks after values point to notes of the source that are not given here. Bridge positions count the residues as written; N and C are the ends. Ends that are not written are not given here. I, II: the chains in the order shown.

Data set [1] relates to E. coli K12. In words: MIC, inhibition of bacterial growth (turbidimetric, Bioscreen C). It is filed as cell-based, Escherichia coli. The following applies: E. coli K12, Mueller-Hinton broth without Ca2+, 37°C, no increment of turbidity after 48 h, CLSI guidelines. The procedure: To study the effect of magainins on metabolically active bacteria, we assessed the antimicrobial activity of the peptides by determining the MIC values according to Clinical and Laboratory Standards Institute (CLSI, formerly National Committee for Clinical Laboratory Standards) guidelines.
Inhibition of bacterial growth by frog peptides was determined using an automated turbidimetric-based system (Bioscreen C, Labsystem, Helsinki, Finland), which measures absorbance of cell cultures in 100-well plates at regular time intervals (λ = 580 nm). Assays were performed in Mueller-Hinton (MH) broth without Ca2+ (18) using Bioscreen polystyrene honeycomb 100-well plates. Briefly, serial dilutions of the AMPs or control antibiotics (gentamicin and ampicillin B) were made in MH broth and dispensed with a multi-pipette into […]
polystyrene honeycomb 100-well plates. E. coli K12 cells grown for 18–20 h on agar plates were suspended in saline adjusting the turbidity to an optical density at λ=565 nm (OD565) of 0.5 (~1 × 10^8 cells/mL) using a DEN-1B densitometer (Grant Instruments, Cambridge, UK).
A fifty-fold dilution of this E. coli suspension prepared in MH broth was mixed with 50 µL (1:1 volume ratio) of a given peptide solution by three times up and down pipetting. Resulting cell suspensions were grown at 37°C with continuous, low amplitude shaking. The turbidity was measured in intervals of 5 minutes (filter bandwidth: λ= 420 – 580 nm). MIC was considered as the minimum concentration of peptide that inhibited any increment of turbidity […]
2011. Studies on lactoferricin-derived Escherichia coli membrane-active peptides reveal differences in the mechanism of N-acylated versus nonacylated peptides. J Biol Chem […]
2. Broekhuyse, R. M. 1968. Phospholipids in tissues of the eye. […]
vinyl-ether phospholipids. Biochim Biophys Acta 152:307–315.
Chemistry and physics of lipids 154:64–67.
8. Israelachvili, J. N. 2011. Intermolecular and surface forces, 3rd ed. Academic Press, […]

Data set [2] is described as follows: ANTS/DPX leakage of POPE/POPG LUVs. The following applies: for Leakage: POPE/POPG LUVs, lipid 50 μM, pH 7.4, 37°C. It is filed as biochemical. On the procedure:
(§1) Large unilamellar vesicles (LUVs) of ∼100 nm size were prepared and assayed for AMP-induced fluorescence leakage as described previously ([23]). Intrinsic lipid curvatures were determined using a SAXSpace small-angle x-ray camera (Anton Paar, Graz, Austria) applying previously developed procedures ([24]). Monte Carlo (MC) simulations were performed using the Metropolis scheme and computationally efficient implicit-solvent coarse-grained models. Lipids were described by a three-bead model developed by Cooke and Deserno ([25]), and the peptide was modeled by a patchy spherocylinder ([26]). Free-energy calculations for peptide translocation were performed using the Wang-Landau method ([27]). For details of experimental and simulation procedures, see the Supporting Material. […]
Lipid films (20 mg total lipid) for dye-release experiments were prepared by mixing the appropriate amounts of dissolved phospholipids before evaporation of solvents under a stream of nitrogen and stored in vacuum overnight. After addition of Hepes buffer containing the fluorophor/quencher ANTS/DPX (10 mM Hepes, 68 mM NaCl, 12.5 mM ANTS, 45 mM DPX, pH 7.4), formation of lipid vesicles was achieved by equilibration at 15°C above the lipid’s melting temperature and intermittent vigorous vortex mixing. PE/PG-mixtures were additionally homogenized by six freeze/thaw-cycles. Large unilamellar vesicles (LUVs) were obtained by 25 cycles of extrusion of the hydrated liposomes through a polycarbonate filter (Millipore-IsoporeTM, Merck, Vienna) of 0.1 µm pore size above the lipid’s melting temperature. Non-encapsulated fluorophore and quencher were removed by size-exclusion chromatography using SephadexTM G-75 (Sigma-Aldrich, Vienna) gel as described earlier (1). LUVs were eluted with Hepes buffer (10 mM Hepes, 140 mM NaCl, pH 7.4). Liposomal lipids were quantified by the determination of lipid phosphorus according the method described by (2). The final LUV concentration for dye-release experiments was adjusted to 50 µM in Hepes buffer (10 mM Hepes, 140 mM NaCl, pH 7.4). […]
Leakage of the aqueous content of ANTS/DPX-loaded LUVs upon incubation with peptides was determined according to (9) and as detailed previously (1). Briefly, 2 ml of LUV suspension was filled into quartz cuvettes and equilibrated at 37°C for 5 minutes. Incremental amounts of peptide solutions prepared in Hepes buffer were added to the LUV suspension with µ-pipettes and mixed using a magnetic stirrer to achieve final peptide concentrations ranging from 0.016 - 1 μM, corresponding to peptide-to-lipid molar ratios from 1:3200 to 1:50. Fluorescence emission was recorded 5 minutes before and after the addition of peptides on a Cary Eclipse Fluorescence Spectrophotometer (Varian Inc., now Agilent Technologies, California, US) using an excitation wavelength of λex = 360 nm and an emission wavelength λem = 530 nm. The slit widths for excitation and emission monochromators were set to 10 nm.
(§2) Percentage of leakage was calculated from the fraction of the leakage (10) […]
(§3) where F is the measured fluorescence, F0 is the initial fluorescence without peptide, and Fmax is the fluorescence corresponding to 100% leakage gained by addition of 1% Triton X-100. […]
In order to verify the dimeric or monomeric state of peptides, 2 µg of peptides were dissolved in loading buffer without DTT and separated by a one-dimensional SDS-PAGE using 5 % stacking and 18 % separating gels according to the method of Laemmli (11). […]

The conditions of data set [3]: cited from earlier work. From the text: Table 2 Thermodynamics of AMP Insertion in PC Membranes According to the Wimley-White Hydrophobicity Scale | column: % helix in PC
Data set [4] in a line: ANTS/DPX leakage of POPC LUVs. The class given is biochemical. The following applies: within studied concentration range 0.016-1 μM, lipid 50 μM, pH 7.4, 37°C, three independent measurements. The procedure: as §1
(§4) Lipid films (20 mg total lipid) for dye-release experiments were prepared by mixing the appropriate amounts of dissolved phospholipids before evaporation of solvents under a stream of nitrogen and stored in vacuum overnight. […] Liposomal lipids were quantified by the determination of lipid phosphorus according the method described by (2). […]
(§5) Leakage of the aqueous content of ANTS/DPX-loaded LUVs upon incubation with peptides was determined according to (9) and as detailed previously (1). […]
as §2

For data set [5] the following is noted: cited from earlier work. From the text: Intriguingly, however, cytoplasmic membranes of Gram-negative bacteria are enriched in lipids with negative intrinsic curvature, such as phosphatidylethanolamine (PE) ([20]). This prompted us to correlate membrane-permeabilizing activities of magainin monomers and dimers in different lipid-only model systems with various intrinsic curvatures J0 determined from small-angle x-ray scattering (SAXS). In particular, we studied the activity of L18W-PGLa and MG2a, as well as their analogs containing GGC linkers, which were used to form the L18W-PGLa-MG2a hybrid peptide (Fig. 1). The choice of L18W-PG ...
This is another data set of the same source.

Data set [6] in a line: ANTS/DPX leakage of lyso-PE/POPE/POPG LUVs. It is filed as biochemical. The following applies: 1 μM peptide, lipid 50 μM, pH 7.4, 37°C, three independent measurements. The procedure:
as §1, §4, §5, §2

A short description of data set [7]: ANTS/DPX leakage of POPC/POPG LUVs. The following applies: 1 μM peptide, lipid 50 μM, pH 7.4, 37°C, three independent measurements. The class given is biochemical. On the procedure:
as §1, §4, §5, §2

Data set [8] is described as follows: ANTS/DPX leakage of POPC/Chol LUVs. The class given is biochemical. The following applies: lipid 50 μM; for Leakage: dimers and mixture, highest concentration studied (1 μM), pH 7.4, 37°C. The procedure:
as §1
Lipid films (20 mg total lipid) for dye-release experiments were prepared by mixing the appropriate amounts of dissolved phospholipids before evaporation of solvents under a stream of nitrogen and stored in vacuum overnight. After addition of Hepes buffer containing the fluorophor/quencher ANTS/DPX (10 mM Hepes, 68 mM NaCl, 12.5 mM ANTS, 45 mM DPX, pH 7.4), formation of lipid vesicles was achieved by equilibration at 15°C above the lipid’s melting temperature and intermittent vigorous vortex mixing. […] Liposomal lipids were quantified by the determination of lipid phosphorus according the method described by (2). […]
Leakage of the aqueous content of ANTS/DPX-loaded LUVs upon incubation with peptides was determined according to (9) and as detailed previously (1). […] Fluorescence emission was recorded 5 minutes before and after the addition of peptides on a Cary Eclipse Fluorescence Spectrophotometer (Varian Inc., now Agilent Technologies, California, US) using an excitation wavelength of λex = 360 nm and an emission wavelength λem = 530 nm. […]
as §2, §3

[9] abbreviates: individual peptides at concentrations above 0.25 μM up to 1 μM (remained at the same level), three independent measurements.
Where [10] appears, read: dimers, plateau/final value at high peptide concentration (up to 1 μM).

What is called MIC is the lowest concentration found to suppress growth. Read a high MIC as a need for much substance. In turn, GIGKFLHSAKKFGKAFVGEIMNS-NH2 [MG2a] registered an MIC in data set [1] of 62.5 µg/mL. The substance also gave a Leakage in data set [2] (setting [9]) of at most 6%. For the same substance, the “% helix in PC” value in data set [3] is reported as 83 ^a %.

GMASKAGAIAGKIAKVAWKAL-NH2 [L18W-PGLa] gave a Maximal leakage in data set [4] of at most 10%. The “Dye release from lipid vesicles compared to native PGLa” value in data set [5] was “almost identical to that induced by native PGLa”. Moreover, in data set [1], the MIC was about 31.25 µg/mL. Moreover, the Leakage entry is recorded as “full LUV leakage” in data set [6], at most 6% in data set [2] (setting [9]) and “full LUV leakage” in data set [7]. Moreover, the “% helix in PC” value in data set [3] was 72 ^b %.

“I: GIGKFLHSAKKFGKAFVGEIMNSGGC-NH2 / II: GIGKFLHSAKKFGKAFVGEIMNSGGC-NH2 (disulfide I:26-II:26 (inferred)) [MG2a homodimers]”: in data set [1], the MIC was found to be 7.8 µg/mL. Further, the Leakage is listed as about 60% in data set [2] (setting [10]) and “not able to induce significant dye release” in data set [8].

As for “I: GMASKAGAIAGKIAKVAWKALGGC-NH2 / II: GMASKAGAIAGKIAKVAWKALGGC-NH2 (disulfide I:24-II:24) [L18W-PGLa homodimers]”, the MIC in data set [1] was about 7.8 µg/mL. In addition, the Leakage in data set [2] (setting [10]) is on record as about 100%; in data set [8], about 74%. Moreover, in data set [2] (POPE/POPG vesicles, DTT (40 μM) added to peptide solution before mixing with LUVs), the “Permeabilization capabilities after DTT reduction” value was “identical with that of L18W-PGLa peptide”. Besides, the “Peptide concentration above which active (leakage)” value in data set [8] was over 0.1 µM.
